Assay results published in ChEMBL document CHEMBL1150977, “A quantitative analysis of kinase inhibitor selectivity” (Nat Biotechnol, 2008).
pKd: −log10 of the molar value.

Key:
[1] = biological target: Casein kinase I isoform delta (Homo sapiens, UniProt P48730)
[2] = biological target: Serine/threonine-protein kinase PLK1 (Homo sapiens, UniProt P53350)
[3] = biological target: T1, Testis-specific serine/threonine-protein kinase 1 (Homo sapiens, UniProt Q9BXA7)
T1 sequence (Q9BXA7 whole entry): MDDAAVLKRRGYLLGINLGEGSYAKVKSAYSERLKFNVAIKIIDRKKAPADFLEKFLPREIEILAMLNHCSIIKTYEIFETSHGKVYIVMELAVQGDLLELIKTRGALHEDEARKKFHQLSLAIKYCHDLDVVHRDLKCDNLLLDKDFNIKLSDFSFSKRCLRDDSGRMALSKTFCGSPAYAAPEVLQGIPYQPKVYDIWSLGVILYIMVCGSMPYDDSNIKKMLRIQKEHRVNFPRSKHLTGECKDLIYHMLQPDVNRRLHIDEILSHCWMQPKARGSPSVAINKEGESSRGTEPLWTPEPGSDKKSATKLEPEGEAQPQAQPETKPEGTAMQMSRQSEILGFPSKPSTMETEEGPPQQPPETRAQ

Ephrin type-B receptor 4 = biological target: T2, Ephrin type-B receptor 4 (Homo sapiens, UniProt P54760)
T2 sequence (P54760 whole entry): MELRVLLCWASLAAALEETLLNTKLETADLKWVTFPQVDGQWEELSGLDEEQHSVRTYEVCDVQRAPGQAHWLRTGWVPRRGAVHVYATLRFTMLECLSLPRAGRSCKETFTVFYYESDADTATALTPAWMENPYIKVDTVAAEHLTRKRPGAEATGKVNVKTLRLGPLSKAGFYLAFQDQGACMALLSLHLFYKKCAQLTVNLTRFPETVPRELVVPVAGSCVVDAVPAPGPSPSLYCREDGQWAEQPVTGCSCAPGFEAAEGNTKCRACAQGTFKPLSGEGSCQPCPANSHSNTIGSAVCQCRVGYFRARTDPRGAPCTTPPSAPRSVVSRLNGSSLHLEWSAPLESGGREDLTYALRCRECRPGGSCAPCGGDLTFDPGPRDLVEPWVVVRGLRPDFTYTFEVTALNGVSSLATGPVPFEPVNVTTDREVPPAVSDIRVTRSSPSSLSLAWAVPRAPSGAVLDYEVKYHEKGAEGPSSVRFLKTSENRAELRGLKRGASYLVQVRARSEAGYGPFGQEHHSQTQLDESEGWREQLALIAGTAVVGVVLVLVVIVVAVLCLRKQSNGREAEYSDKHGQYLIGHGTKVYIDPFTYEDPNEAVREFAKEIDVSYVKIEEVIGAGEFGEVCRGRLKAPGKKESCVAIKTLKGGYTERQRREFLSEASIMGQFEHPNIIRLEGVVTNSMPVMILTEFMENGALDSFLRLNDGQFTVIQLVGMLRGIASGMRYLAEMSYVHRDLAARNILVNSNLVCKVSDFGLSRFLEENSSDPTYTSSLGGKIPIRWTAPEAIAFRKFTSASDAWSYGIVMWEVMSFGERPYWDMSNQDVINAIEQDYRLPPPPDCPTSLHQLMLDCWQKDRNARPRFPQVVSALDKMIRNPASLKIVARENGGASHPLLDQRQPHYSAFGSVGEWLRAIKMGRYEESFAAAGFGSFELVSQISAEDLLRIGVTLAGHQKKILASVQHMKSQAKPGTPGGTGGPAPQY

[4] = biological target: Calcium/calmodulin-dependent protein kinase kinase 1 (Homo sapiens, UniProt Q8N5S9)
Calcium/calmodulin-dependent protein kinase kinase 1, sequence (Q8N5S9 whole entry): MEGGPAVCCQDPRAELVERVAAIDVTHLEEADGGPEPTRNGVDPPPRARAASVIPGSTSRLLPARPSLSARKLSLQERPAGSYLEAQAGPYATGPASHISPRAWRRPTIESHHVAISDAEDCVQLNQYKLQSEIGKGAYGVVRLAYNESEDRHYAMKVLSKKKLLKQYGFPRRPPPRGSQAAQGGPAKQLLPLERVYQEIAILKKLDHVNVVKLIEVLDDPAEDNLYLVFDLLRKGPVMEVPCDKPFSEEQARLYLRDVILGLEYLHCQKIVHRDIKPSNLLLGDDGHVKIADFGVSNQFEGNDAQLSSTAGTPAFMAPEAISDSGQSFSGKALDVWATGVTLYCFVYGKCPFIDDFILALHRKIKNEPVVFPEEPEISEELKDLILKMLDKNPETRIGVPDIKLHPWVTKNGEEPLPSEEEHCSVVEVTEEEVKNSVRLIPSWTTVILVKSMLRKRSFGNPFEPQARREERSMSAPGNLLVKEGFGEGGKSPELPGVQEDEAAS

[5] = biological target: T3, Serine/threonine-protein kinase D3 (Homo sapiens, UniProt O94806)
T3 sequence (O94806 whole entry): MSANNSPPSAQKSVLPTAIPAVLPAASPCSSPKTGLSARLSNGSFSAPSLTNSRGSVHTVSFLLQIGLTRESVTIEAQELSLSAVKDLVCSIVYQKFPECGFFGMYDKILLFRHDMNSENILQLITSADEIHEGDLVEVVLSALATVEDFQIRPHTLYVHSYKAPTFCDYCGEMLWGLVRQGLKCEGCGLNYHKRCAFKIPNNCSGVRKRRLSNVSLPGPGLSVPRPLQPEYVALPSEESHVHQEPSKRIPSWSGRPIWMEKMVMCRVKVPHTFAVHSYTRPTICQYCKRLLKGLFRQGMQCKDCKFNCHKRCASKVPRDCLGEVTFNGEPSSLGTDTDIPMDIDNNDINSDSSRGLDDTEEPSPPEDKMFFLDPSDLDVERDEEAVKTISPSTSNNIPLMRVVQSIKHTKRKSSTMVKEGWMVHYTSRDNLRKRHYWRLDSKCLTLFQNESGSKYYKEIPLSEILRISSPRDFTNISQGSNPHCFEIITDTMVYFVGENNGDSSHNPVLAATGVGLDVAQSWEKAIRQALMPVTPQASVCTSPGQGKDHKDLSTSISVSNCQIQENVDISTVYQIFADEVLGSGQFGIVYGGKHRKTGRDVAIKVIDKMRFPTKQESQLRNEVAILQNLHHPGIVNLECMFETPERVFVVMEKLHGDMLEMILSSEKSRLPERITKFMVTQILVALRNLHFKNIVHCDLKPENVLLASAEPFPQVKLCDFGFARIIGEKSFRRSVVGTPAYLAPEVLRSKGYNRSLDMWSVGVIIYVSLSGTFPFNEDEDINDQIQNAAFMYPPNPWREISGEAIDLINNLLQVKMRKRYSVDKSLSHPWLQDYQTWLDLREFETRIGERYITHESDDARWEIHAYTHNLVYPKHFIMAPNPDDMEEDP

[6] = biological target: Phosphatidylinositol 4,5-bisphosphate 3-kinase catalytic subunit alpha isoform (Homo sapiens, UniProt P42336)
Phosphatidylinositol 4,5-bisphosphate 3-kinase catalytic subunit alpha isoform, sequence (P42336 whole entry, canonical isoform): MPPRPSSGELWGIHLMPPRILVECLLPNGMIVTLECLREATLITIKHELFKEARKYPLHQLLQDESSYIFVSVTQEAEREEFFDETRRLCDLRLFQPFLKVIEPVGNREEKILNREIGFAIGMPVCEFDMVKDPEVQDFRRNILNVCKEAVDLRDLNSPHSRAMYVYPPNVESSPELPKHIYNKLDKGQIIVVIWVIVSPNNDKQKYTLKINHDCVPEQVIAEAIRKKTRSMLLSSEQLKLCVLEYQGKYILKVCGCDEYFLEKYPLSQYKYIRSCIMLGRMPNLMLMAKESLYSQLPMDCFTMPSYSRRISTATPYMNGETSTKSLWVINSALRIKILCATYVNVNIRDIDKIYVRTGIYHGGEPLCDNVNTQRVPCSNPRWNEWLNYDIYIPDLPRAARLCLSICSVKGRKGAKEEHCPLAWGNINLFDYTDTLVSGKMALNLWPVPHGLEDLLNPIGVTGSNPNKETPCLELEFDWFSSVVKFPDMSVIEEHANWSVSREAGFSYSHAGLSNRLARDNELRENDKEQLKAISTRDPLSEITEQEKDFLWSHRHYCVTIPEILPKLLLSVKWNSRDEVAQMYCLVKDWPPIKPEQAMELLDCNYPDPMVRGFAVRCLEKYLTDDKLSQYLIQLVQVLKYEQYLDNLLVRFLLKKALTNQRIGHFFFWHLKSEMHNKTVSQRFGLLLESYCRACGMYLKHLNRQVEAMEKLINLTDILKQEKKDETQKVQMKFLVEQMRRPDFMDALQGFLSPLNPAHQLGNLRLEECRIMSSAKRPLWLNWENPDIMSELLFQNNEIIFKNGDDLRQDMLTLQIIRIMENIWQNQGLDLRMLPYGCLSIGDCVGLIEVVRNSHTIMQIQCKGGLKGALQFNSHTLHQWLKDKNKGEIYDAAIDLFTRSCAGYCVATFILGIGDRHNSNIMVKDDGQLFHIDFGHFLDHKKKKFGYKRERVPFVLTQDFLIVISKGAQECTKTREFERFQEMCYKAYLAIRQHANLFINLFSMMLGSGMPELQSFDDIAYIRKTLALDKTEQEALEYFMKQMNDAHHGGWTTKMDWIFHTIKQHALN

[7] = biological target: Cyclin-dependent kinase 19 (Homo sapiens, UniProt Q9BWU1)
Cyclin-dependent kinase 19, sequence (Q9BWU1 whole entry): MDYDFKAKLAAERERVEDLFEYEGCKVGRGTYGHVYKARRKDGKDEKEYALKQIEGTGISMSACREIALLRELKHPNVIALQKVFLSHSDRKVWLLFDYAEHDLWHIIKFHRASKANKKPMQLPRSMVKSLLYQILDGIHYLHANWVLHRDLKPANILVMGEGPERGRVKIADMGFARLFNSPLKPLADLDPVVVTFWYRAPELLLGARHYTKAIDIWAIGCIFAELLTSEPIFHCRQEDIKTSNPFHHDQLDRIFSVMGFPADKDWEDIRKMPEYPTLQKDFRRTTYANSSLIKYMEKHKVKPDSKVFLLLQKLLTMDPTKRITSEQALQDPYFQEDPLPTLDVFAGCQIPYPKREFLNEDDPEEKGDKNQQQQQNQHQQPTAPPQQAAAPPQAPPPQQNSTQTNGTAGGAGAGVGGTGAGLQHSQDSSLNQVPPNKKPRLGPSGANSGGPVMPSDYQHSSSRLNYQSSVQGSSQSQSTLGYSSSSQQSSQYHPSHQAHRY

Casein kinase I isoform delta, sequence (P48730 whole entry, canonical isoform): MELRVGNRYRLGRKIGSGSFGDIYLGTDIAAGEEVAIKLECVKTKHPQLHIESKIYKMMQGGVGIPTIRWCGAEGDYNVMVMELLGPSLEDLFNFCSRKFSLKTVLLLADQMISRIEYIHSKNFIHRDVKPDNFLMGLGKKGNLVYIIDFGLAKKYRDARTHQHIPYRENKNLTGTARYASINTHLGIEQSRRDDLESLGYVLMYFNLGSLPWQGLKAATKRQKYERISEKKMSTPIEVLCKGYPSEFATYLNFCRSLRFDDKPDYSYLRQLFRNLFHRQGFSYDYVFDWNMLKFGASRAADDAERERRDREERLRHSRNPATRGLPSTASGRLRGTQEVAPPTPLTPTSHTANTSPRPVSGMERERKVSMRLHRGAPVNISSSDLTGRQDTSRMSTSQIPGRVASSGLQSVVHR
Serine/threonine-protein kinase PLK1, sequence (P53350 whole entry): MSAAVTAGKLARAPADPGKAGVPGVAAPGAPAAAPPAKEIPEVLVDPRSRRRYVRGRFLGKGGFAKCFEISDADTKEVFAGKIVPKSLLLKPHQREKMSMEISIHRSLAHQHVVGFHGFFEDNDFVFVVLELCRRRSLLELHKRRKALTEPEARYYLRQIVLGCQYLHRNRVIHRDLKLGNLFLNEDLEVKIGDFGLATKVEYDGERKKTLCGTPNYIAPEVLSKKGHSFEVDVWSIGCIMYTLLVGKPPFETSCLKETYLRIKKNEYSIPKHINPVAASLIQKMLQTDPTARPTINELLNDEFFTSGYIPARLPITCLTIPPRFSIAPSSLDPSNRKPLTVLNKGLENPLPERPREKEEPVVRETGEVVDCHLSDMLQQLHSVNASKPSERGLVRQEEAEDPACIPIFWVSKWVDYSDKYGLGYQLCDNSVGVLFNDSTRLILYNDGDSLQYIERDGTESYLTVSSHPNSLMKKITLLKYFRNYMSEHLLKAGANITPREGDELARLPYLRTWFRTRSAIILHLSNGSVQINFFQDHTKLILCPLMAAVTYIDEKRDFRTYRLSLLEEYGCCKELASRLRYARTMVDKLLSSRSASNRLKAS

Structure (SMILES) | pKd [1] | pKd [2] | pKd [3] | pKd (Ephrin type-B receptor 4) | pKd [4] | pKd [5] | pKd [6] | pKd [7]
COCC(=O)NC/C=C/c1ccc2ncnc(Nc3ccc(Oc4ccc(C)nc4)c(C)c3)c2c1 [CP-724714] | < 5.00 | < 5.00 | < 5.00 | < 5.00 | < 5.00 | < 5.00 | – | –
CCOc1cc2ncc(C#N)c(Nc3ccc(F)c(Cl)c3)c2cc1NC(=O)/C=C/CN(C)C [PELITINIB] | 5.96 | < 5.00 | < 5.00 | 5.55 | 5.29 | < 5.00 | < 5.00 | < 5.00
NC(=O)c1ccc(-c2nc(-c3ccc4c(c3)OCO4)c(-c3ccccn3)[nH]2)cc1 [SB-431542] | – | < 5.00 | < 5.00 | < 5.00 | < 5.00 | – | < 5.00 | < 5.00
Nc1nc(Nc2ccc(S(N)(=O)=O)cc2)nn1C(=O)c1c(F)cccc1F [JNJ-7706621] | < 5.00 | 5.30 | < 5.00 | < 5.00 | – | – | < 5.00 | < 5.00
Oc1ccc(-c2nc(-c3ccncc3)c(-c3ccc(F)cc3)[nH]2)cc1 [SB-202190] | – | < 5.00 | < 5.00 | < 5.00 | < 5.00 | < 5.00 | < 5.00 | < 5.00
